Read-outs that look alike come from different tables or passages of the source.
Test: Stability of (7aS,2′S)-2-oxo-clopidogrel in plasma, screening of TCEP dosage (Example 4)
Type: in vitro ADME
Details: for recovery at 0 min, 0.1 ng/mL / recovery at 30 min, 0.1 ng/mL / recovery at 60 min, 0.1 ng/mL / recovery at 120 min, 0.1 ng/mL: theoretical 0.1 ng/mL; for recovery at 0 min, 0.1 ng/mL / recovery at 30 min, 0.1 ng/mL / recovery at 60 min, 0.1 ng/mL / recovery at 120 min, 0.1 ng/mL / recovery at 0 min, 12 ng/mL / recovery at 30 min, 12 ng/mL / recovery at 60 min, 12 ng/mL / recovery at 120 min, 12 ng/mL: read-out: Recovery rate; for recovery at 0 min, 12 ng/mL / recovery at 30 min, 12 ng/mL / recovery at 60 min, 12 ng/mL / recovery at 120 min, 12 ng/mL: theoretical 12.0 ng/mL
Protocol: S2. Plasma sample pre-treatment: taking 100 μl of the plasma, adding 5 μl of an internal standard working solution and 300 μl of acetonitrile respectively; after vortex mixing, centrifuging at 2-8° C. and 10,000 r/min for 10 min, and collecting the supernatant for later use.
S3. LC-MS/MS analysis: injecting 10 μl of the supernatant prepared from step S2 for determination, where the liquid chromatography conditions are: • the chromatographic column is Kinetex® 1.7 μm C18 100 A 100×2.1 mm; the column temperature is 40° C.; the mobile phase is acetonitrile-0.2% aqueous formic acid solution with a flow rate of 0.2 ml/min; and a gradient elution is carried out as specified in the table below:
ESI ion source, positive ion detection in multiple reaction monitoring mode (MRM); the quantitatively analyzed ions (7aS,2′S)-2-oxo-clopidogrel: m/z 338.100→155.000, IS: m/z 341.100→158.000, a capillary voltage of 4.0 KV, a cone voltage of 25 V, a desolvation gas temperature of 400° C. and a source temperature of 150° C. The optimal collision energy is 20 eV.
Blank plasma was taken and TCEP was added to prepare plasma containing TCEP at different concentrations (10, 50, 100 mg/ml). Subsequently, standard series solution of (7aS,2′S)-2-oxo-clopidogrel was added separately to prepare quality control samples with two concentrations of (7aS,2′S)-2-oxo-clopidogrel (0.1 and 12.0 ng/ml), 3 samples for each concentration. They were placed at room temperature and on ice, respectively, and the plasma samples at different placing time points were taken to examine the stability by pre-treating the plasma samples according to the method of S2 of Example 1, followed by LC/MS/MS determination according to the method of S3.

[1] = plasma containing TCEP 10 mg/ml, TCEP 10 mg/ml, on ice
[2] = plasma containing TCEP 10 mg/ml, TCEP 10 mg/ml, room temperature
[3] = plasma without TCEP, No TCEP, on ice
[4] = plasma without TCEP, No TCEP, room temperature
[5] = plasma, TCEP 50 mg/ml, room temperature
[6] = plasma, TCEP 100 mg/ml, room temperature

COC(=O)[C@H](c1ccccc1Cl)N1CC[C@@H]2SC(=O)C=C2C1 [(7aS,2′S)-2-oxo-clopidogrel, methyl(S)-2-(2-chlorophenyl)-2-((S)-2-oxo-2,6,7,7a-tetrahydrothieno[3,2-c]pyridin-5 (4H)-yl)acetate]
Stability in plasma (in words) (on ice compared with room temperature): more stable when placed on ice than at room temperature
recovery at 0 min, 0.1 ng/mL [1]: 96.5%
recovery at 30 min, 0.1 ng/mL [1]: 94.2%
recovery at 60 min, 0.1 ng/mL [1]: 86.3%
recovery at 120 min, 0.1 ng/mL [1]: 78.2%
recovery at 0 min, 0.1 ng/mL [2]: 96.5%
recovery at 30 min, 0.1 ng/mL [2]: 95.2%
recovery at 60 min, 0.1 ng/mL [2]: 83.3%
recovery at 120 min, 0.1 ng/mL [2]: 72.9%
recovery at 0 min, 12 ng/mL [1]: 102%
recovery at 30 min, 12 ng/mL [1]: 99.2%
recovery at 60 min, 12 ng/mL [1]: 88.8%
recovery at 120 min, 12 ng/mL [1]: 82.7%
recovery at 0 min, 12 ng/mL [2]: 102%
recovery at 30 min, 12 ng/mL [2]: 97.5%
recovery at 60 min, 12 ng/mL [2]: 86.7%
recovery at 120 min, 12 ng/mL [2]: 78.8%
recovery at 0 min, 0.1 ng/mL (plasma containing TCEP 50 mg/ml, TCEP 50 mg/ml, room temperature): 96.5%
Stability in plasma (in words) (plasma samples without TCEP): degraded fast
recovery at 0 min, 0.1 ng/mL [3]: 96.5%
recovery at 30 min, 0.1 ng/mL [3]: 84.2%
recovery at 60 min, 0.1 ng/mL [3]: 76.3%
recovery at 120 min, 0.1 ng/mL [3]: 62.2%
recovery at 30 min, 0.1 ng/mL [4]: 78.2%
recovery at 60 min, 0.1 ng/mL [4]: 63.3%
recovery at 120 min, 0.1 ng/mL [4]: 52.9%
recovery at 0 min, 12 ng/mL [3]: 102%
recovery at 30 min, 12 ng/mL [3]: 85.8%
recovery at 60 min, 12 ng/mL [3]: 80.4%
recovery at 120 min, 12 ng/mL [3]: 60.3%
recovery at 0 min, 12 ng/mL [4]: 102%
recovery at 30 min, 12 ng/mL [4]: 78.8%
recovery at 60 min, 12 ng/mL [4]: 69.8%
recovery at 120 min, 12 ng/mL [4]: 54.8%
recovery at 0 min, 0.1 ng/mL (plasma, No TCEP, room temperature): 96.5%
recovery at 0 min, 0.1 ng/mL (plasma, TCEP 50 mg/ml, on ice): 96.5%
recovery at 30 min, 0.1 ng/mL (plasma, TCEP 50 mg/ml, on ice): 95.6%
recovery at 60 min, 0.1 ng/mL (plasma, TCEP 50 mg/ml, on ice): 93.2%
recovery at 120 min, 0.1 ng/mL (plasma, TCEP 50 mg/ml, on ice): 91.1%
recovery at 30 min, 0.1 ng/mL [5]: 93.5%
recovery at 60 min, 0.1 ng/mL [5]: 91.4%
recovery at 120 min, 0.1 ng/mL [5]: 89.5%
recovery at 0 min, 12 ng/mL (plasma, TCEP 50 mg/ml, on ice): 102%
recovery at 30 min, 12 ng/mL (plasma, TCEP 50 mg/ml, on ice): 102%
recovery at 60 min, 12 ng/mL (plasma, TCEP 50 mg/ml, on ice): 99.2%
recovery at 120 min, 12 ng/mL (plasma, TCEP 50 mg/ml, on ice): 95%
recovery at 0 min, 12 ng/mL [5]: 102%
recovery at 30 min, 12 ng/mL [5]: 101%
recovery at 60 min, 12 ng/mL [5]: 99.2%
recovery at 120 min, 12 ng/mL [5]: 88.3%
recovery at 0 min, 0.1 ng/mL (plasma, TCEP 100 mg/ml, on ice): 96.5%
recovery at 30 min, 0.1 ng/mL (plasma, TCEP 100 mg/ml, on ice): 95.8%
recovery at 60 min, 0.1 ng/mL (plasma, TCEP 100 mg/ml, on ice): 94.2%
recovery at 120 min, 0.1 ng/mL (plasma, TCEP 100 mg/ml, on ice): 95.1%
recovery at 0 min, 0.1 ng/mL [6]: 96.5%
recovery at 30 min, 0.1 ng/mL [6]: 95.5%
recovery at 60 min, 0.1 ng/mL [6]: 93.4%
recovery at 120 min, 0.1 ng/mL [6]: 91.5%
recovery at 0 min, 12 ng/mL (plasma, TCEP 100 mg/ml, on ice): 102%
recovery at 30 min, 12 ng/mL (plasma, TCEP 100 mg/ml, on ice): 103%
recovery at 60 min, 12 ng/mL (plasma, TCEP 100 mg/ml, on ice): 101%
recovery at 120 min, 12 ng/mL (plasma, TCEP 100 mg/ml, on ice): 98.3%
recovery at 0 min, 12 ng/mL [6]: 102%
recovery at 30 min, 12 ng/mL [6]: 102%
recovery at 60 min, 12 ng/mL [6]: 99.2%
recovery at 120 min, 12 ng/mL [6]: 96.7%

Reference: patent US20260140098A1, “METHOD FOR TREATING PLASMA SAMPLE CONTAINING (7aS,2'S)-2-OXO-CLOPIDOGREL AND METHOD FOR DETERMINING THE SAME” (CHENGDU SHIBEIKANG BIOMEDICAL TECHNOLOGY CO., LTD., priority 2021, published 2026)
